Reference: ChEMBL document CHEMBL4184122, “Chebulinic acid attenuates glutamate-induced HT22 cell death by inhibiting oxidative stress, calcium influx and MAPKs phosphorylation” (2018)
Activity calls are given as the source filed them. The calls are words filed in the database; no cut-off is given here.

Tested on: HT-22
Test: Neuroprotective activity against glutamate induced cell death in mouse HT22 cells assessed as increase in cell viability at 1 to 5 uM after 24 hrs by MTT assay
Type: functional, cell-based

Question: For `CC(=O)N[C@@H](CS)C(=O)O`, which Activity is on record?
Answer: Its Activity is “Active”.
